Source: patent publication US4179441A, “Fungidal and herbicidal 2-substituted-3-oxa-3aλ^4, 4-dithia-6-halo-1,5-diazapentalene” (Chevron Research Company, priority 1977, dated 1979)

Tests used:
Septoria apii = conditions: in vivo
Erysiphe polygoni = assay: Powdery Mildew (bean seedlings); assay type: in vivo; conditions: 240 h, 250 ppm spray on bean seedlings, about 10 days, relative to untreated check plants
Text: The powdery mildew test was made using bean seedlings (var. Bountiful) with well-developed primary leaves. The pathogen was Erysiphe polygoni. The bean seedlings were sprayed with a 250 ppm solution of the test compound in an acetone-water mixture containing a nonionic emulsifier. The treated plants were inoculated one day after spray application of the test compound with the pathogen. […] The rate of infection on the leaves was made after about 10 days. The percent disease control provided by a given test compound was based on the disease reduction relative to untreated check plants.

Rhizoctonia solani = assay: Mycelia Inhibition; assay type: cell-based; conditions: mycelial inhibition, 25° C., 24 hours
Pythium ultimum = assay: Mycelia Inhibition; assay type: cell-based; conditions: mycelial inhibition, 25° C., 24 hours
Fusarium moniliforme = assay: Mycelia Inhibition; assay type: cell-based; conditions: mycelial inhibition, 25° C., 24 hours
Aspergillus niger = assay: Mycelia Inhibition; assay type: cell-based; conditions: mycelial inhibition, 25° C., 24 hours
Botrytis cinerea = Botrytis cinerea control (detached horsebean leaves); assay type: in vivo; conditions: 3 to 5 days
Procedure: Compounds of the invention were tested for Botrytis cinerea control using detached, well-developed primary leaves of a 4-6 week old horsebean plant. […] The leaves were allowed to dry while the filter paper was kept moist by adding water as required. The treated leaves were then inoculated with the spores of Botrytis cinerea fungus grown on potato. The plate was covered after inoculation and kept at 23.5° C. The filter-paper lining of the plate was kept saturated with water throughout the test. The rate of disease incidence was determined in 3 to 5 days, when the disease symptoms were fully evident on non-treated check leaves. […]

Phytophthora infestans = assay: whole plant or invertebrate; assay type: in vivo; conditions: in Solanum lycopersicum, 168 h, read-out: Tomato Late Blight % Control
Alternaria solani = assay: Tomato Early Blight; assay type: in vivo; conditions: 288 h, 250 ppm spray, inoculated one day later, based on untreated check plants, read-out: Tomato Early blight % Control
Wild Oats (Avena fatua) [1] = assay: Post-emergent herbicidal test; assay type: in vivo; conditions: 0-to-100 scale
[2] = system: Lambsquarter (Chenopodium album); assay: Post-emergent herbicidal test; assay type: in vivo; conditions: 0-to-100 scale
[3] = system: Watergrass (Echinochloa crusgalli); assay: Post-emergent herbicidal test; assay type: in vivo; conditions: 0-to-100 scale
[4] = system: Crabgrass (Digitaria sanguinalis); assay: Post-emergent herbicidal test; assay type: in vivo; conditions: 0-to-100 scale
Wild Oats (Avena fatua) [5] = assay: Pre-Emergent herbicidal test; assay type: in vivo; conditions: 33 micrograms/cm^2, 3 weeks, 0-to-100 scale, 100 = complete kill
Procedure: (§1) Pre-emergent herbicidal tests on representative compounds of the invention were made using the following method:
(§2) An acetone solution of the test compound was prepared by mixing 750 mg of the compound, 220 mg of a nonionic surfactant and 25 ml of acetone. This solution was added to approximately 125 ml of water containing 156 mg of surfactant.
(§3) Seeds of the test vegetation were planted in a pot of soil and the test solution was sprayed uniformly onto the soil surface at a dose of 33 micrograms/cm^2. The pot was watered and placed in a greenhouse. […] At the end of this period, the herbicidal effectiveness of the compound was rated based on the physiological observations. A 0-to-100 scale was used, 0 representing no phytotoxicity, 100 representing complete kill.

[6] = system: Mustard (Brassica arvensis); assay: Pre-Emergent herbicidal test; assay type: in vivo; conditions: 33 micrograms/cm^2, 3 weeks, 0-to-100 scale, 100 = complete kill
Procedure: as §1, §2, §3

[7] = system: Lambsquarter (Chenopodium album); assay: Pre-Emergent herbicidal test; assay type: in vivo; conditions: 33 micrograms/cm^2, 3 weeks, 0-to-100 scale, 100 = complete kill
Procedure: as §1, §2, §3

[8] = system: Crabgrass (Digitaria sanguinalis); assay: Pre-Emergent herbicidal test; assay type: in vivo; conditions: 33 micrograms/cm^2, 3 weeks, 0-to-100 scale, 100 = complete kill
Procedure: as §1, §2, §3

[9] = system: Watergrass (Echinochloa crusgalli); assay: Pre-Emergent herbicidal test; assay type: in vivo; conditions: 33 micrograms/cm^2, 3 weeks, 0-to-100 scale, 100 = complete kill
Procedure: as §1, §2, §3

[10] = system: Mustard (Brassica arvensis); assay: Post-emergent herbicidal test; assay type: in vivo; conditions: 0-to-100 scale

FC(F)(F)c1cccc(C2=NC3=S(O2)SN=C3Cl)c1 (centres unmarked) [Compound 4]
Celery Late Blight % Control (Septoria apii): 23% | pest or weed control at 250 ppm (Erysiphe polygoni): 80% | Rhizoctonia solani, micrograms/cm^2 for 99% control of the fungus (Rhizoctonia solani): 0.65 micrograms/cm^2 | Pythium ultimum, micrograms/cm^2 for 99% control of the fungus (Pythium ultimum): > 1.7 micrograms/cm^2 | Fusarium moniliforme, micrograms/cm^2 for 99% control of the fungus (Fusarium moniliforme): > 1.7 micrograms/cm^2 | Aspergillus niger, micrograms/cm^2 for 99% control of the fungus (Aspergillus niger): > 1.7 micrograms/cm^2

ClC1=NSS2=C1N=C(CI)O2 (centres unmarked) [Compound 9, 2-iodomethyl-3-oxa-3aλ^4,4-dithia-6-chloro-1,5-diazapentalene]
Botrytis Cinerea, micrograms/cm^2 for 99% control of the fungus (Botrytis cinerea): 0.37 micrograms/cm^2 | Celery Late Blight % Control (Septoria apii): 71% | pest or weed control at 250 ppm (Phytophthora infestans): 62% | Rhizoctonia solani, micrograms/cm^2 for 99% control of the fungus (Rhizoctonia solani): 0.6 micrograms/cm^2 | Pythium ultimum, micrograms/cm^2 for 99% control of the fungus (Pythium ultimum): 0.12 micrograms/cm^2 | Fusarium moniliforme, micrograms/cm^2 for 99% control of the fungus (Fusarium moniliforme): 0.82 micrograms/cm^2 | Aspergillus niger, micrograms/cm^2 for 99% control of the fungus (Aspergillus niger): 0.52 micrograms/cm^2 | pest or weed control at 250 ppm (Alternaria solani): 81%

Cc1cc(Cl)ccc1OCC1=NC2=S(O1)SN=C2Cl (centres unmarked) [Compound 19]
Celery Late Blight % Control (Septoria apii): 92% | Herbicidal Effectiveness - Post, O (Wild Oats (Avena fatua) [1]): 10 | Herbicidal Effectiveness - Post, L [2]: 95 | pest or weed control at 250 ppm (Erysiphe polygoni): 57% | Herbicidal Effectiveness - Post, W [3]: 40 | Herbicidal Effectiveness - Post, C [4]: 0 | Herbicidal Effectiveness - Pre, O (Wild Oats (Avena fatua) [5]): 35 | Herbicidal Effectiveness - Pre, M [6]: 100 | Herbicidal Effectiveness - Pre, L [7]: 100 | Herbicidal Effectiveness - Pre, C [8]: 85 | Herbicidal Effectiveness - Pre, W [9]: 75 | Herbicidal Effectiveness - Post, M [10]: 100

ClC1=NSS2=C1N=C(COc1ccc(Cl)cc1Cl)O2 (centres unmarked) [Compound 29]
Herbicidal Effectiveness - Post, O (Wild Oats (Avena fatua) [1]): 20 | Herbicidal Effectiveness - Post, L [2]: 97 | pest or weed control at 250 ppm (Erysiphe polygoni): 37% | Herbicidal Effectiveness - Post, W [3]: 20 | Herbicidal Effectiveness - Post, C [4]: 20 | Herbicidal Effectiveness - Pre, O (Wild Oats (Avena fatua) [5]): 0 | Herbicidal Effectiveness - Pre, M [6]: 100 | Herbicidal Effectiveness - Pre, L [7]: 100 | Herbicidal Effectiveness - Pre, C [8]: 97 | Herbicidal Effectiveness - Pre, W [9]: 95 | pest or weed control at 250 ppm (Alternaria solani): 69% | Herbicidal Effectiveness - Post, M [10]: 100
